Experimental findings from article PMC5218480 (PLoS ONE, 2017) are described below.

The subject of the experiment is MV-4-11 cells. The experiment can be described thus: Gene expression microarray analysis (Affymetrix PrimeView) and GSEA. Type of experiment: cell-based, human. Details: RFU PODN (11730768_x_at) / Fold change /veh PODN (11730768_x_at) / RFU LINC00158 (11744669_a_at) / Fold change /veh LINC00158 (11744669_a_at) / RFU DUSP10 (11751237_a_at) / Fold change /veh DUSP10 (11751237_a_at) / RFU ID3 (11757404_x_at) / Fold change /veh ID3 (11757404_x_at) / RFU PLEKHG5 (11737974_s_at) / Fold change /veh PLEKHG5 (11737974_s_at) / RFU LRRC4B (11730491_at) / Fold change /veh LRRC4B (11730491_at) / RFU GIMAP4 (11747438_a_at) / Fold change /veh GIMAP4 (11747438_a_at) / RFU KRT8 (11758183_x_at) / Fold change /veh KRT8 (11758183_x_at) / RFU CNN1 (11734310_a_at) / Fold change /veh CNN1 (11734310_a_at) / RFU VPS37D (11726825_at) / Fold change /veh VPS37D (11726825_at) / RFU C10orf10 (11716522_x_at) / Fold change /veh C10orf10 (11716522_x_at) / RFU KIR2DL2 /// KIR2DL4 /// KIR2DL5A /// KIR2DL5B /// KIR2DS1 /// KIR2DS2 /// KIR2DS3 /// KIR2DS4 /// KIR3DL3 /// KIR3DL3 /// KIR3DS1 (11738374_at) / Fold change /veh KIR2DL2 /// KIR2DL4 /// KIR2DL5A /// KIR2DL5B /// KIR2DS1 /// KIR2DS2 /// KIR2DS3 /// KIR2DS4 /// KIR3DL3 /// KIR3DL3 /// KIR3DS1 (11738374_at) / RFU C1QL1 (11718748_at) / Fold change /veh C1QL1 (11718748_at) / RFU TMPRSS4 (11747572_a_at) / Fold change /veh TMPRSS4 (11747572_a_at) / RFU HAMP (11756126_x_at) / Fold change /veh HAMP (11756126_x_at) / RFU RNFT2 (11725882_a_at) / Fold change /veh RNFT2 (11725882_a_at) / RFU NR4A2 (11747474_a_at) / Fold change /veh NR4A2 (11747474_a_at) / RFU ABCC12 (11746883_a_at) / Fold change /veh ABCC12 (11746883_a_at) / RFU TMEM136 (11760407_x_at) / Fold change /veh TMEM136 (11760407_x_at) / RFU CLDN22 /// WWC2 (11732394_at) / Fold change /veh CLDN22 /// WWC2 (11732394_at) / RFU HLA-DPB1 (11760878_x_at) / Fold change /veh HLA-DPB1 (11760878_x_at) / RFU SPINT1 (11716480_a_at) / Fold change /veh SPINT1 (11716480_a_at) / RFU GAP43 (11754022_s_at) / Fold change /veh GAP43 (11754022_s_at) / RFU A4GNT (11735810_at) / Fold change /veh A4GNT (11735810_at) / RFU PRB3 (11715151_x_at) / Fold change /veh PRB3 (11715151_x_at) / RFU TUBB4B (11761932_at) / Fold change /veh TUBB4B (11761932_at) / RFU CAPN14 (11732068_a_at) / Fold change /veh CAPN14 (11732068_a_at) / RFU TMCC2 (11721928_a_at) / Fold change /veh TMCC2 (11721928_a_at) / RFU IRGQ (11745062_a_at) / Fold change /veh IRGQ (11745062_a_at) / RFU FAM174B (11720279_a_at) / Fold change /veh FAM174B (11720279_a_at) / RFU TMPRSS4 (11748680_a_at) / Fold change /veh TMPRSS4 (11748680_a_at) / RFU FAM212B (11763350_a_at) / Fold change /veh FAM212B (11763350_a_at) / RFU PLEKHG5 (11743358_a_at) / Fold change /veh PLEKHG5 (11743358_a_at) / RFU ZSCAN30 (11745921_a_at) / Fold change /veh ZSCAN30 (11745921_a_at) / RFU CMKLR1 (11741424_a_at) / Fold change /veh CMKLR1 (11741424_a_at) / RFU LOC101060620 /// MAPK8IP1 (11723275_at) / Fold change /veh LOC101060620 /// MAPK8IP1 (11723275_at) / RFU SPTSSB (11747773_x_at) / Fold change /veh SPTSSB (11747773_x_at) / RFU PRSS12 (11739890_at) / Fold change /veh PRSS12 (11739890_at) / RFU BIN1 (11741810_x_at) / Fold change /veh BIN1 (11741810_x_at) / RFU WNT11 (11732464_a_at) / Fold change /veh WNT11 (11732464_a_at) / RFU C10orf10 (11716521_a_at) / Fold change /veh C10orf10 (11716521_a_at) / RFU C5orf56 (11738089_at) / Fold change /veh C5orf56 (11738089_at) / RFU CYB561 (11721691_x_at) / Fold change /veh CYB561 (11721691_x_at) / RFU ANKRD19P (11752326_a_at) / Fold change /veh ANKRD19P (11752326_a_at) / RFU OR2T12 /// OR2T33 /// OR2T8 (11738714_s_at) / Fold change /veh OR2T12 /// OR2T33 /// OR2T8 (11738714_s_at) / RFU VCAN (11748164_a_at) / Fold change /veh VCAN (11748164_a_at) / RFU JSRP1 (11732532_at) / Fold change /veh JSRP1 (11732532_at) / RFU KRTAP10-11 (11738290_x_at) / Fold change /veh KRTAP10-11 (11738290_x_at) / RFU MYO3A (11730013_a_at) / Fold change /veh MYO3A (11730013_a_at) / RFU EBF3 (11725865_a_at) / Fold change /veh EBF3 (11725865_a_at) / RFU CAMK2N1 (11719241_x_at) / Fold change /veh CAMK2N1 (11719241_x_at) / RFU C5orf56 (11738088_a_at) / Fold change /veh C5orf56 (11738088_a_at) / RFU OLFML3 (11715873_a_at) / Fold change /veh OLFML3 (11715873_a_at) / RFU LOC100653217 /// NTM (11731650_a_at) / Fold change /veh LOC100653217 /// NTM (11731650_a_at) / RFU MAPK11 (11762145_a_at) / Fold change /veh MAPK11 (11762145_a_at) / RFU FIZ1 (11724087_x_at) / Fold change /veh FIZ1 (11724087_x_at) / RFU OASL (11726364_x_at) / Fold change /veh OASL (11726364_x_at) / RFU SOX15 (11748057_x_at) / Fold change /veh SOX15 (11748057_x_at) / RFU CD79A (11719716_a_at) / Fold change /veh CD79A (11719716_a_at) / RFU HIST1H1D (11736915_at) / Fold change /veh HIST1H1D (11736915_at) / RFU CASKIN2 (11723855_a_at) / Fold change /veh CASKIN2 (11723855_a_at) / RFU LOC730098 (11760151_x_at) / Fold change /veh LOC730098 (11760151_x_at) / RFU OR4N2 (11742367_at) / Fold change /veh OR4N2 (11742367_at) / RFU PRRT2 (11749266_a_at) / Fold change /veh PRRT2 (11749266_a_at) / RFU SNX32 (11753110_a_at) / Fold change /veh SNX32 (11753110_a_at) / RFU CDHR5 (11726645_a_at) / Fold change /veh CDHR5 (11726645_a_at) / RFU RCAN1 (11760418_a_at) / Fold change /veh RCAN1 (11760418_a_at) / RFU FAM167A (11723789_a_at) / Fold change /veh FAM167A (11723789_a_at) / RFU FAM26E (11764081_at) / Fold change /veh FAM26E (11764081_at) / RFU ISYNA1 (11749810_s_at) / Fold change /veh ISYNA1 (11749810_s_at) / RFU ACY1 (11761880_at) / Fold change /veh ACY1 (11761880_at) / RFU 11764098_at / Fold change /veh 11764098_at / RFU SAMD14 (11745864_x_at) / Fold change /veh SAMD14 (11745864_x_at) / RFU NPB (11741838_a_at) / Fold change /veh NPB (11741838_a_at) / RFU TMPRSS6 (11731388_a_at) / Fold change /veh TMPRSS6 (11731388_a_at) / RFU KRTAP10-2 (11738614_at) / Fold change /veh KRTAP10-2 (11738614_at) / RFU ARHGAP8 /// PRR5-ARHGAP8 (11727945_x_at) / Fold change /veh ARHGAP8 /// PRR5-ARHGAP8 (11727945_x_at) / RFU KRTAP5-7 /// NADSYN1 (11734609_at) / Fold change /veh KRTAP5-7 /// NADSYN1 (11734609_at) / RFU RASL12 (11751679_a_at) / Fold change /veh RASL12 (11751679_a_at) / RFU CDKN2B (11736163_a_at) / Fold change /veh CDKN2B (11736163_a_at) / RFU PRF1 (11729649_at) / Fold change /veh PRF1 (11729649_at) / RFU, ZNF638 /// ZNF638-IT1 / Fold change vs veh, ZNF638 /// ZNF638-IT1 / RFU, PANK3 / Fold change vs veh, PANK3 / RFU, SH3YL1 / Fold change vs veh, SH3YL1 / RFU, ZEB2 / Fold change vs veh, ZEB2 / RFU, NRIP1 / Fold change vs veh, NRIP1 / RFU, PTTG1IP / Fold change vs veh, PTTG1IP / RFU, CAPN2 / Fold change vs veh, CAPN2 / RFU, MED14 / Fold change vs veh, MED14 / RFU, SNORA58 / Fold change vs veh, SNORA58 / RFU, C1orf63 / Fold change vs veh, C1orf63 / RFU, LRRFIP1 / Fold change vs veh, LRRFIP1 / RFU, NDUFAF7 / Fold change vs veh, NDUFAF7 / RFU, SLC12A2 / Fold change vs veh, SLC12A2 / RFU, IBTK / Fold change vs veh, IBTK / RFU, ESF1 / Fold change vs veh, ESF1 / Fold change vs veh, TMEM50B / RFU, TAOK1 / Fold change vs veh, TAOK1 / RFU, ACBD3 / Fold change vs veh, ACBD3 / RFU, TMA16 / Fold change vs veh, TMA16 / RFU, RWDD3 / Fold change vs veh, RWDD3 / RFU, BCAT1 / Fold change vs veh, BCAT1 / RFU, EDEM3 / Fold change vs veh, EDEM3 / RFU, TMEM33 / Fold change vs veh, TMEM33 / RFU, WDR75 / Fold change vs veh, WDR75 / RFU, AHCTF1 / Fold change vs veh, AHCTF1 / RFU, TFRC / Fold change vs veh, TFRC / RFU, ZDHHC17 / Fold change vs veh, ZDHHC17 / RFU, NOM1 / Fold change vs veh, NOM1 / RFU, ARL8B / Fold change vs veh, ARL8B / RFU, ZBTB11 / Fold change vs veh, ZBTB11 / RFU, TAMM41 / Fold change vs veh, TAMM41 / RFU, KIAA1704 /// LOC100996395 / Fold change vs veh, KIAA1704 /// LOC100996395 / RFU, ING1 / Fold change vs veh, ING1 / RFU, TRMT61B / Fold change vs veh, TRMT61B / RFU, FUBP3 / Fold change vs veh, FUBP3 / RFU, TP53 / Fold change vs veh, TP53 / RFU, TNKS2 / Fold change vs veh, TNKS2 / RFU, ZFP14 / Fold change vs veh, ZFP14 / RFU, ACTR2 / Fold change vs veh, ACTR2 / RFU, PPP3R1 / Fold change vs veh, PPP3R1 / RFU, PIK3R1 / Fold change vs veh, PIK3R1 / RFU, HNRNPA1 / Fold change vs veh, HNRNPA1 / RFU, RNF170 / Fold change vs veh, RNF170 / RFU, ZNF28 / Fold change vs veh, ZNF28 / RFU, RNGTT / Fold change vs veh, RNGTT / RFU, OGT / Fold change vs veh, OGT / RFU, BRD1 / Fold change vs veh, BRD1 / RFU, MARS / Fold change vs veh, MARS / RFU, ZNF655 / Fold change vs veh, ZNF655 / RFU, FAHD1 / Fold change vs veh, FAHD1 / RFU, BDP1 / Fold change vs veh, BDP1 / RFU, LRRCC1 / Fold change vs veh, LRRCC1 / RFU, ARID1A / Fold change vs veh, ARID1A / RFU, ZNF146 / Fold change vs veh, ZNF146 / RFU, ZNF330 / Fold change vs veh, ZNF330 / RFU, GPN3 / Fold change vs veh, GPN3 / RFU, C9orf123 / Fold change vs veh, C9orf123 / RFU, N4BP2L2 / Fold change vs veh, N4BP2L2 / RFU, ARFIP1 / Fold change vs veh, ARFIP1 / RFU, FAM179B / Fold change vs veh, FAM179B / RFU, BCL10 / Fold change vs veh, BCL10 / RFU, UHRF1BP1L / Fold change vs veh, UHRF1BP1L / RFU, BET1 / Fold change vs veh, BET1 / RFU, CNOT2 / Fold change vs veh, CNOT2 / RFU, ZNF268 / Fold change vs veh, ZNF268 / Fold change vs veh, ZNF507 / RFU, DGCR2 / Fold change vs veh, DGCR2 / RFU, WDSUB1 / Fold change vs veh, WDSUB1 / Fold change vs veh, HSP90B1 /// MIR3652 / RFU, ADSS / Fold change vs veh, ADSS / RFU, GK / Fold change vs veh, GK / RFU, ZNF148 / Fold change vs veh, ZNF148 / RFU, TAF9 / Fold change vs veh, TAF9 / RFU, SLC1A5 / Fold change vs veh, SLC1A5 / RFU, SLMO2 / Fold change vs veh, SLMO2 / RFU, ABCC4 / Fold change vs veh, ABCC4 / RFU, LOC101060439 /// RAP1B / Fold change vs veh, LOC101060439 /// RAP1B / RFU, RFX7 / Fold change vs veh, RFX7 / RFU, GTPBP10 / Fold change vs veh, GTPBP10 / RFU, CNEP1R1 / Fold change vs veh, CNEP1R1 / RFU, BIVM-ERCC5 /// ERCC5 / Fold change vs veh, BIVM-ERCC5 /// ERCC5 / RFU, ILF3 / Fold change vs veh, ILF3 / RFU 11762660_at / Fold change /veh 11762660_at / RFU VCAN (11757783_s_at) / Fold change /veh VCAN (11757783_s_at) / RFU DDX43 (11728927_at) / Fold change /veh DDX43 (11728927_at) / RFU KRT8 (11758188_x_at) / Fold change /veh KRT8 (11758188_x_at) / RFU NKD1 (11759106_at) / Fold change /veh NKD1 (11759106_at) / RFU SRD5A1 (11742802_a_at) / Fold change /veh SRD5A1 (11742802_a_at) / RFU TPSAB1 /// TPSB2 (11721975_s_at) / Fold change /veh TPSAB1 /// TPSB2 (11721975_s_at) / RFU GSTM3 (11746129_a_at) / Fold change /veh GSTM3 (11746129_a_at) / RFU IL23R (11737362_x_at) / Fold change /veh IL23R (11737362_x_at) / RFU TMEM51 (11727254_a_at) / Fold change /veh TMEM51 (11727254_a_at) / RFU PIWIL2 (11732686_x_at) / Fold change /veh PIWIL2 (11732686_x_at) / RFU ORM1 (11744905_x_at) / Fold change /veh ORM1 (11744905_x_at) / RFU CCDC152 (11743942_at) / Fold change /veh CCDC152 (11743942_at) / RFU ECM1 (11717891_a_at) / Fold change /veh ECM1 (11717891_a_at) / RFU IL23R (11748794_a_at) / Fold change /veh IL23R (11748794_a_at) / RFU TNFAIP8L3 (11732012_x_at) / Fold change /veh TNFAIP8L3 (11732012_x_at) / RFU MBOAT4 (11741988_at) / Fold change /veh MBOAT4 (11741988_at) / RFU 11764193_at / Fold change /veh 11764193_at / RFU TMEM53 (11763286_at) / Fold change /veh TMEM53 (11763286_at) / RFU MAGEB2 (11727129_at) / Fold change /veh MAGEB2 (11727129_at) / RFU TMEM200A (11744735_a_at) / Fold change /veh TMEM200A (11744735_a_at) / RFU CCDC152 (11751479_a_at) / Fold change /veh CCDC152 (11751479_a_at) / RFU FAM211A (11726209_a_at) / Fold change /veh FAM211A (11726209_a_at) / RFU RGS16 (11746705_a_at) / Fold change /veh RGS16 (11746705_a_at) / RFU VCAN (11755009_s_at) / Fold change /veh VCAN (11755009_s_at) / RFU RHOB (11743442_s_at) / Fold change /veh RHOB (11743442_s_at) / RFU RGS16 (11720943_a_at) / Fold change /veh RGS16 (11720943_a_at) / RFU RGS16 (11720944_at) / Fold change /veh RGS16 (11720944_at) / RFU, VPS4B / Fold change vs veh, VPS4B / RFU, CREB1 / Fold change vs veh, CREB1 / RFU, DNAJC13 / Fold change vs veh, DNAJC13 / RFU, GNAQ / Fold change vs veh, GNAQ / RFU, CDK5R1 / Fold change vs veh, CDK5R1 / RFU, ZRANB3 / Fold change vs veh, ZRANB3 / RFU, CUL4A / Fold change vs veh, CUL4A / RFU, CCNY / Fold change vs veh, CCNY / RFU, UFL1 / Fold change vs veh, UFL1 / RFU, COG3 / Fold change vs veh, COG3 / RFU, DIAPH2 / Fold change vs veh, DIAPH2 / RFU, SKA2 / Fold change vs veh, SKA2 / RFU, AFF3 / Fold change vs veh, AFF3 / RFU, LMF1 / Fold change vs veh, LMF1 / RFU, IPO11 / Fold change vs veh, IPO11 / RFU, DFFB / Fold change vs veh, DFFB / RFU, FOXP1 / Fold change vs veh, FOXP1 / RFU, CARD8 / Fold change vs veh, CARD8 / RFU, STRN3 / Fold change vs veh, STRN3 / RFU, ADK / Fold change vs veh, ADK / RFU, RASSF2 / Fold change vs veh, RASSF2 / RFU, WIPF1 / Fold change vs veh, WIPF1 / RFU, LARP1B / Fold change vs veh, LARP1B / RFU, RASA1 / Fold change vs veh, RASA1 / RFU, RB1 / Fold change vs veh, RB1 / RFU, PPFIA1 / Fold change vs veh, PPFIA1 / RFU, MAT2A / Fold change vs veh, MAT2A / RFU, CCT5 / Fold change vs veh, CCT5 / RFU, WDR92 / Fold change vs veh, WDR92 / RFU, CUX1 / Fold change vs veh, CUX1 / RFU, TTC7A / Fold change vs veh, TTC7A / RFU, TMEM135 / Fold change vs veh, TMEM135 / RFU, DEPTOR / Fold change vs veh, DEPTOR / RFU, CPM / Fold change vs veh, CPM / RFU, DNAJB6 / Fold change vs veh, DNAJB6 / RFU, CACNA2D3 / Fold change vs veh, CACNA2D3 / RFU, DTX4 / Fold change vs veh, DTX4 / RFU, TFCP2 / Fold change vs veh, TFCP2 / RFU, GMCL1 /// GMCL1P1 / Fold change vs veh, GMCL1 /// GMCL1P1 / RFU, AEBP2 / Fold change vs veh, AEBP2 / RFU, SNHG1 /// SNORD22 /// SNORD25 /// SNORD26 /// SNORD27 /// SNORD28 /// SNORD29 /// SNORD31 / Fold change vs veh, SNHG1 /// SNORD22 /// SNORD25 /// SNORD26 /// SNORD27 /// SNORD28 /// SNORD29 /// SNORD31 / Fold change (Aza/veh), C12orf56 (ProbeSet 11735607_a_at) / Fold change (ACY-1035/veh), C12orf56 (ProbeSet 11735607_a_at) / Fold change (Aza/veh), FGFR1OP (ProbeSet 11751329_s_at) / Fold change (ACY-1035/veh), FGFR1OP (ProbeSet 11751329_s_at) / Fold change (Aza/veh), VPS36 (ProbeSet 11739960_a_at) / Fold change (ACY-1035/veh), VPS36 (ProbeSet 11739960_a_at) / RFU SYPL1 (11715823_x_at) / Fold change /veh SYPL1 (11715823_x_at) / RFU IGFBP7 (11715501_s_at) / Fold change /veh IGFBP7 (11715501_s_at) / RFU REEP3 (11722064_at) / Fold change /veh REEP3 (11722064_at) / RFU IGLL1 (11728026_x_at) / Fold change /veh IGLL1 (11728026_x_at): dose or concentration left out as unconfirmed. To be noted: MV-4-11 cells, 48 hours.

Molecules are shown by their SMILES.

For `Nc1ncn([C@@H]2O[C@H](CO)[C@@H](O)[C@H]2O)c(=O)n1` [azacitidine], the “RFU RHOB (11743442_s_at)” value is 110.59 RFU.
